# ChEMBL document CHEMBL1201862, “PubChem BioAssay data set” (2004)
# Activity calls are given as the source filed them.
# Experiments:
# Large T antigen = Large T antigen (Simian virus 40, UniProt P03070); format: functional, Betapolyomavirus macacae;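 note: Confirmatory-stage PubChem screen for compounds that inhibit SV40 T antigen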
# [1] = biological target: Induced myeloid leukemia cell differentiation protein Mcl-1 (Homo sapiens, UniProt Q07820); format: functional
# [2] = biological target: Voltage-dependent T-type calcium channel subunit alpha-1H (Homo sapiens, UniProt O95180); format: functional;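 note: channel activity triggered by adding a high calcium stimulation buffer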
# [3] = biological target: DNA dC->dU-editing enzyme APOBEC-3G (Homo sapiens, UniProt Q9HC16); test: Dose Response confirmation of small molecule APOBEC3G DNA Deaminase Inhibitors via a fluorescence-based single-stranded DNA deaminase assay. [Related pubchem assays (depositor defined):AID493012, AID493028]; format: functional
# Aminopeptidase N = biological target: T1, Aminopeptidase N (Plasmodium falciparum FcB1/Columbia, UniProt O96935); test: P. falciparum M1AAP inhibitors, biochemical, fluorogenic H-Leu-NHMec substrate, 1536-well (AID 1445); design: species or system Plasmodium falciparum 3D7, 3D7
# T1 sequence (O96935 whole entry): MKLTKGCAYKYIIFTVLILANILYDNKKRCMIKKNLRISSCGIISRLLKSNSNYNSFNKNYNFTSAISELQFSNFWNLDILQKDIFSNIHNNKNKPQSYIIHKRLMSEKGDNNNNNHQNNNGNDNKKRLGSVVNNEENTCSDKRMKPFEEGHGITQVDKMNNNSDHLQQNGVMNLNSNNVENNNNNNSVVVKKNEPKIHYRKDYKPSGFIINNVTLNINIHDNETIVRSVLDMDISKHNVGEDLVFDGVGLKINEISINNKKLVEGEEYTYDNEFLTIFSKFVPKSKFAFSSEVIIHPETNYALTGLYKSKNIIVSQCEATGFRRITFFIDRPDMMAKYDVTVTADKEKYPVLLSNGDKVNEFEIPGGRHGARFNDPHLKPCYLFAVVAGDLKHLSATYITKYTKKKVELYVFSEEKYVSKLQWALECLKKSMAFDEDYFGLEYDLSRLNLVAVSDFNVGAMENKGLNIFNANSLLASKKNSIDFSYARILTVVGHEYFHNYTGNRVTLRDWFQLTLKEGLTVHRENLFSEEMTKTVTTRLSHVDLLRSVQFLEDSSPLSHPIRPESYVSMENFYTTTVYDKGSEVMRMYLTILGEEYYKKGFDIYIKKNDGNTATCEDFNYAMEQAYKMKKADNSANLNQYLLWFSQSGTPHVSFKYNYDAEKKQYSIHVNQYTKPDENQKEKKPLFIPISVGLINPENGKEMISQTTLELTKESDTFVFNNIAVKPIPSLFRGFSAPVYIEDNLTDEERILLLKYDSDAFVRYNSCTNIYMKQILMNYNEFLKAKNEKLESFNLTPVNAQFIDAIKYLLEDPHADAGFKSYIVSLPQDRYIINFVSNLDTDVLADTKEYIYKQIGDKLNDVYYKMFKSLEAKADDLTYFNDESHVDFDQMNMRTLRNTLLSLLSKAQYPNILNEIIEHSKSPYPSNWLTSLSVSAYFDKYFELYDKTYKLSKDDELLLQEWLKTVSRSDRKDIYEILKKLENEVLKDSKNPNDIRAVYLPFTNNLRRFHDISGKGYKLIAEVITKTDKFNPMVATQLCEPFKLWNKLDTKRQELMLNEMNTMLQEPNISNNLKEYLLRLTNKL
# [4] = biological target: T2, Trace amine-associated receptor 1 (Homo sapiens, UniProt Q96RJ0); test: Fluorescence-based cell-based high throughput dose response assay to identify agonists of the human trace amine associated receptor 1 (TAAR1).; format: functional
# T2 sequence (Q96RJ0 whole entry): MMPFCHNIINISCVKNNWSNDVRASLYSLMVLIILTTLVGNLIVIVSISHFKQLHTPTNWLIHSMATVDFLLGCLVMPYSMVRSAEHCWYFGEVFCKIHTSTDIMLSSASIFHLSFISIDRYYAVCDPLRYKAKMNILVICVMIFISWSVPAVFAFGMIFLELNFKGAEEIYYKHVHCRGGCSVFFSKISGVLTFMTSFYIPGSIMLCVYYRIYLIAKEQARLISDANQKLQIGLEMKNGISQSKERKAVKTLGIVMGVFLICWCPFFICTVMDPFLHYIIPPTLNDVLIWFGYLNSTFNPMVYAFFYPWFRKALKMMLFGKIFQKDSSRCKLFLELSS
# [5] = biological target: T2, Trace amine-associated receptor 1; test: Counterscreen for agonists of the human trace amine associated receptor 1 (hTAAR1): Fluorescence-based cell-based high throughput dose response assay to identify hTAAR1 agonist that also desensitize TAAR1 receptor response.; format: functional
# cells [6] = format: functional, cell-based
# cells [7] = format: functional, cell-based; remark: listed apart in the source
# Estrogen receptor = biological target: T3, Estrogen receptor (Homo sapiens, UniProt P03372);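 note: potency for inhibiting coactivator peptide recruitment to the receptor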
# T3 sequence (P03372 whole entry): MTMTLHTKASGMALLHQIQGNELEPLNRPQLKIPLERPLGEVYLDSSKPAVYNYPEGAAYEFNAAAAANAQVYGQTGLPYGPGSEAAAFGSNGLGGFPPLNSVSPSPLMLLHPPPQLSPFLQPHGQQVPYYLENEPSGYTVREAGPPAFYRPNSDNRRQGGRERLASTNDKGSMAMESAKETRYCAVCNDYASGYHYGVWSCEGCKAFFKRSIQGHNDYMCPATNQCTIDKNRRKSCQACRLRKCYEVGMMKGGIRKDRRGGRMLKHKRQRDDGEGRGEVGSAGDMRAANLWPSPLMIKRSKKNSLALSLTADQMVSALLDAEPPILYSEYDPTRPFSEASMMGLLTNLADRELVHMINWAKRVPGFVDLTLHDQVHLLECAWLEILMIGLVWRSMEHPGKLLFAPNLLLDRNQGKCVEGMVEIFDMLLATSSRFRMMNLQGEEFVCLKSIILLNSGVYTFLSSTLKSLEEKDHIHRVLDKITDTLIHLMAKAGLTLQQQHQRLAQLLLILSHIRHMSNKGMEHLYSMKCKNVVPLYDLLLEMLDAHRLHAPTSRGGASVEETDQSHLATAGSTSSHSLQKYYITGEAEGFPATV
# [8] = HEp-2 cell cytotoxicity, dose response, cytotoxicity control for RSV inhibitor project, HTS (AID 2410); format: functional; settings: human respiratory syncytial virus
# cells [9] = test: cells
# [10] = NIH-3T3 fibroblast cytotoxicity, dose response, cytotoxicity control, cell-based, fluorescence, Alamar Blue, secondary assay (AID 2327); format: functional;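 note: NIH-3T3 mouse fibroblasts cultured with fluconazole at 8 µg/mL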
# [11] = C. albicans growth with fluconazole, confirmation, fluorescence, retest (AID 2467); format: functional, cell-based
# CAAX prenyl protease 2 = biological target: T4, CAAX prenyl protease 2 (Saccharomyces cerevisiae S288c, UniProt Q03530); format: biochemical
# T4 sequence (Q03530 whole entry): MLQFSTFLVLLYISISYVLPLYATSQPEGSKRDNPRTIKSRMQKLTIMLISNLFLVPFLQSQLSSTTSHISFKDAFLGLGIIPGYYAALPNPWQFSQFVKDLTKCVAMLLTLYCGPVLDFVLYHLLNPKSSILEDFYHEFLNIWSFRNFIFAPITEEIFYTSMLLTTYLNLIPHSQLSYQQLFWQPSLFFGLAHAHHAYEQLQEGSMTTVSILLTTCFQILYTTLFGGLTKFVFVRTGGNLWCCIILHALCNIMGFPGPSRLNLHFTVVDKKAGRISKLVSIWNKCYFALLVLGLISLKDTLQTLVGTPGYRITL
# Fatty acid synthase [12] = biological target: T5, Fatty acid synthase (Homo sapiens, UniProt P49327); test: FAS thioesterase domain inhibitors, dose response, biochemical, kinetic fluorescence intensity (AID 624326); format: functional;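 note: rate of fluorescence rise from hydrolysis of a fluorogenic O-methyl fluorescein ester substrate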
# Fatty acid synthase [13] = biological target: T5, Fatty acid synthase; test: FAS thioesterase domain inhibitors, dose response, biochemical, endpoint fluorescence intensity, uHTS hits (AID 624327); format: functional;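 note: fluorescence from hydrolysis of an O-methyl fluorescein acyl ester substrate by the enzyme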
# Cytochrome P450 2C19 = Cytochrome P450 2C19 (Homo sapiens, UniProt P33261); test: qHTS Assay for Inhibitors and Substrates of Cytochrome P450 2C19. [Related pubchem assays: 410 ]; format: ADME; settings: read-out: Potency
# [14] = biological target: T6, Acyl-homoserine lactone acylase PvdQ (Pseudomonas aeruginosa (strain LESB58), UniProt Q9I194); test: P. aeruginosa PvdQ acylase inhibitors, dose response, biochemical, fluorescence, plate reader and imaging, cherry-picks (AID 493231)
# T6 sequence (Q9I194 whole entry): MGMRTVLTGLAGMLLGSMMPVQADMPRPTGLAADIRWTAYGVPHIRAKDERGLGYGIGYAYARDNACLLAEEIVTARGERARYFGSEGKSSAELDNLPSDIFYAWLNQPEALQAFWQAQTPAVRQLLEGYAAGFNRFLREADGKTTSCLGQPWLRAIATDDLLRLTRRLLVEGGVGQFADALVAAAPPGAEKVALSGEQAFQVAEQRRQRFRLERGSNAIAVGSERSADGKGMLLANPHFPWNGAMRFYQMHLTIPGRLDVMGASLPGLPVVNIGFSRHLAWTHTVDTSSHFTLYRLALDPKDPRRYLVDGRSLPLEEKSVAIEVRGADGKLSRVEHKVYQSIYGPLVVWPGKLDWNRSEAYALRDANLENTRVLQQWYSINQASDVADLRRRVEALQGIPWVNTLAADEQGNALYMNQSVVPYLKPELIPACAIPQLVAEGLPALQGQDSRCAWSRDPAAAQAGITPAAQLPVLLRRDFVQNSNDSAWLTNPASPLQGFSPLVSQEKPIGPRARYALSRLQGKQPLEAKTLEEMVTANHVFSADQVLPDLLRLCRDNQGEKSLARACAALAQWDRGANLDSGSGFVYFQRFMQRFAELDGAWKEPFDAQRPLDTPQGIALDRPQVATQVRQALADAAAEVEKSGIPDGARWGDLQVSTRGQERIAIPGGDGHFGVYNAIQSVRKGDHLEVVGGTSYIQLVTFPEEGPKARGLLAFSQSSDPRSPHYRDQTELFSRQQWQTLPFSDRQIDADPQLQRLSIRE
# Beta-galactosidase = Beta-galactosidase (Escherichia coli, UniProt Q8VNN2); test: beta-galactosidase enzyme inhibitors and activators, dose response, artefact control for CCR6 antagonist project, biochemical, E. coli enzyme, set 3 (AID 504712); format: functional
# Chain of Voltage-dependent T-type calcium channel subunit alpha-1H (O95180 whole entry): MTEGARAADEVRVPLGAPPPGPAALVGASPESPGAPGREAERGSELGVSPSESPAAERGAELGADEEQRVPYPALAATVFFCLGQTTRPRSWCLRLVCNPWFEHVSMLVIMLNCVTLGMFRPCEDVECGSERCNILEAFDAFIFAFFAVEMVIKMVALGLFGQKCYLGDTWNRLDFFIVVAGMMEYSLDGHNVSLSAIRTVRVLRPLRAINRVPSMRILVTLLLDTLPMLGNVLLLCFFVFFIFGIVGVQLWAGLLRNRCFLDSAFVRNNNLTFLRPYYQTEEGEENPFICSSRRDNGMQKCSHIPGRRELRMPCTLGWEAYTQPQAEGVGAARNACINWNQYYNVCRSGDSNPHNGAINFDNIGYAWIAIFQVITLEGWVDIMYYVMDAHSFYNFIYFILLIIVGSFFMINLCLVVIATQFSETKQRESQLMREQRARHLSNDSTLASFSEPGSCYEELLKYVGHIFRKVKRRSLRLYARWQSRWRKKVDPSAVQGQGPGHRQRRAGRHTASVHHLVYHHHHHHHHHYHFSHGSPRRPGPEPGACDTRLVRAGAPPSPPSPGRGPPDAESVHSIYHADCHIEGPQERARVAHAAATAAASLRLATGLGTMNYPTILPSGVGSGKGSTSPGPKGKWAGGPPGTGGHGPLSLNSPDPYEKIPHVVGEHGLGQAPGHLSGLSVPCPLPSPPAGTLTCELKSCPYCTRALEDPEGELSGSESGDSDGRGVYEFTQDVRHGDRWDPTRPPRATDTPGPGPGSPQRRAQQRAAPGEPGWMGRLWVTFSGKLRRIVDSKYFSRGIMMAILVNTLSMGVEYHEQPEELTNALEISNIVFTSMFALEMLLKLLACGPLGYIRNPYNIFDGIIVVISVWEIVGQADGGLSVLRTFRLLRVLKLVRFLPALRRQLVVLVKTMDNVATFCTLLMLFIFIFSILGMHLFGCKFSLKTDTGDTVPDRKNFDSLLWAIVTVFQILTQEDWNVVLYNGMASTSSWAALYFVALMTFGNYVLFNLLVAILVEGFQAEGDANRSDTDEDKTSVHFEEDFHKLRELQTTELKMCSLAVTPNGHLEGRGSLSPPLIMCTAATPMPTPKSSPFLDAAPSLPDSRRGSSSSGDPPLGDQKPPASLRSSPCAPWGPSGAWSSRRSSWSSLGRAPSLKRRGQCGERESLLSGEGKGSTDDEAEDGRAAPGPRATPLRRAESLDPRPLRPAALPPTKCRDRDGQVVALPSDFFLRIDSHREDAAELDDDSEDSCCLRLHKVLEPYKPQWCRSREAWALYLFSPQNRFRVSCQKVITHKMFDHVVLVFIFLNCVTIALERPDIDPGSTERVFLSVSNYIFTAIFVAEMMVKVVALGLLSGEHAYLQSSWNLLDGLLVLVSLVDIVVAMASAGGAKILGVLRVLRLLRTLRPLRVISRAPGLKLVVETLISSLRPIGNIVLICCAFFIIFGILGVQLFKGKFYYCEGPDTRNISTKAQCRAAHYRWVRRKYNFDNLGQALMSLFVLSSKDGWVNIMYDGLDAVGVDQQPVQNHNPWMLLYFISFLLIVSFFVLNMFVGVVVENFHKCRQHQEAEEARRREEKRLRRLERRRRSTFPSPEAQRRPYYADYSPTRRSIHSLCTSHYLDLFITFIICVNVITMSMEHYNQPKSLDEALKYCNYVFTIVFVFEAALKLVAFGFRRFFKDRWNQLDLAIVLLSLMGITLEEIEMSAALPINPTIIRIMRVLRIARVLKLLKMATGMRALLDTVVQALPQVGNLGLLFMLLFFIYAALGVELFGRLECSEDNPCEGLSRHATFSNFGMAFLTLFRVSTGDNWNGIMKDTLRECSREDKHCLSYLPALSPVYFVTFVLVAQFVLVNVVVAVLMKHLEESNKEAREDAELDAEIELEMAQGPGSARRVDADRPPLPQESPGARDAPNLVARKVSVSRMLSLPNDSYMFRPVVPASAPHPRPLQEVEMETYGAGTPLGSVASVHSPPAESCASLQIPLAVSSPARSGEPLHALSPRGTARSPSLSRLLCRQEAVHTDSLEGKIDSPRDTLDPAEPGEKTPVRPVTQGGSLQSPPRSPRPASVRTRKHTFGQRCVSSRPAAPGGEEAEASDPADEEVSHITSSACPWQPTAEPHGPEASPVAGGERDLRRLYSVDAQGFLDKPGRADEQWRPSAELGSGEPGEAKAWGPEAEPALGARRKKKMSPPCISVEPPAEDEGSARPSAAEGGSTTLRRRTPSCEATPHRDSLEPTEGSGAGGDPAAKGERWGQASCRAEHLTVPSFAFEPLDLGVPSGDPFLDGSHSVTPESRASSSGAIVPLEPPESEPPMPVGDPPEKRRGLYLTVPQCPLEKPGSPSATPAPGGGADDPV
# Chain of Induced myeloid leukemia cell differentiation protein Mcl-1 (Q07820 whole entry): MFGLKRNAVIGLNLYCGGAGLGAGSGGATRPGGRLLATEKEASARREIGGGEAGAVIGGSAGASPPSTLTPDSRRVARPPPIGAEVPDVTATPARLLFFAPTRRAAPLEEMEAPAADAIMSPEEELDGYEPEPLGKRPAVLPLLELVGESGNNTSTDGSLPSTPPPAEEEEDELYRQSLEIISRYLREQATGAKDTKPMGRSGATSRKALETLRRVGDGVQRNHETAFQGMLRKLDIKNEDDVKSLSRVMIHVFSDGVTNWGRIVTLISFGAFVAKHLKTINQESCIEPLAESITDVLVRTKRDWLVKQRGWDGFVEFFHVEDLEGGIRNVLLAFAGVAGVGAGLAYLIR
# Chain of DNA dC->dU-editing enzyme APOBEC-3G (Q9HC16 whole entry): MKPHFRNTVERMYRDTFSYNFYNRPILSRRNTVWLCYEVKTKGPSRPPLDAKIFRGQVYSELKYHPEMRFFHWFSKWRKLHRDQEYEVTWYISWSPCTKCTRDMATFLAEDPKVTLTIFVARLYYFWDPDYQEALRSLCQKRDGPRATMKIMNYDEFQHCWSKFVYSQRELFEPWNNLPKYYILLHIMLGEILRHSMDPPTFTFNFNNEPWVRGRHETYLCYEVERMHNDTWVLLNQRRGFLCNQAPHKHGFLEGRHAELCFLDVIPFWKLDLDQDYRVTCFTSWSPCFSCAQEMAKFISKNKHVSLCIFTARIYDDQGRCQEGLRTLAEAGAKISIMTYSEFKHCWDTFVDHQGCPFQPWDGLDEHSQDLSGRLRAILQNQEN
# Chain of Large T antigen (P03070 whole entry): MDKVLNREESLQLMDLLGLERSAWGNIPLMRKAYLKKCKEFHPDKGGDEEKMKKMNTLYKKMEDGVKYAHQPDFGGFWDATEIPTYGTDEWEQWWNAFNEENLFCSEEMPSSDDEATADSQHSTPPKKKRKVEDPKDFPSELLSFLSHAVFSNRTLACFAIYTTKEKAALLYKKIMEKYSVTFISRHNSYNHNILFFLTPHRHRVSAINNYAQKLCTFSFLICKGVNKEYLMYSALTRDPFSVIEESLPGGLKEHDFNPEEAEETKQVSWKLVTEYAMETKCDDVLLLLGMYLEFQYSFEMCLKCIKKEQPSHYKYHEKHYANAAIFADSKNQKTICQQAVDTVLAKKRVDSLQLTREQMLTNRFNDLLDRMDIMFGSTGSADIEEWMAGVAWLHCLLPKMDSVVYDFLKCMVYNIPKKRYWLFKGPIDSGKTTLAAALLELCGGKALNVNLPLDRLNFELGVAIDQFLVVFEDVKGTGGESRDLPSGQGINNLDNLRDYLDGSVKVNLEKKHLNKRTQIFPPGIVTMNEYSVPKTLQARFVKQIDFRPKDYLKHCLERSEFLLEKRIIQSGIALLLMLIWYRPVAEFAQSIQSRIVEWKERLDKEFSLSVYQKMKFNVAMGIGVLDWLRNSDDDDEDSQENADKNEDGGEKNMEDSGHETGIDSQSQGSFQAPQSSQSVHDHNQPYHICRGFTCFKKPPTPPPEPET
# Chain of Cytochrome P450 2C19 (P33261 whole entry): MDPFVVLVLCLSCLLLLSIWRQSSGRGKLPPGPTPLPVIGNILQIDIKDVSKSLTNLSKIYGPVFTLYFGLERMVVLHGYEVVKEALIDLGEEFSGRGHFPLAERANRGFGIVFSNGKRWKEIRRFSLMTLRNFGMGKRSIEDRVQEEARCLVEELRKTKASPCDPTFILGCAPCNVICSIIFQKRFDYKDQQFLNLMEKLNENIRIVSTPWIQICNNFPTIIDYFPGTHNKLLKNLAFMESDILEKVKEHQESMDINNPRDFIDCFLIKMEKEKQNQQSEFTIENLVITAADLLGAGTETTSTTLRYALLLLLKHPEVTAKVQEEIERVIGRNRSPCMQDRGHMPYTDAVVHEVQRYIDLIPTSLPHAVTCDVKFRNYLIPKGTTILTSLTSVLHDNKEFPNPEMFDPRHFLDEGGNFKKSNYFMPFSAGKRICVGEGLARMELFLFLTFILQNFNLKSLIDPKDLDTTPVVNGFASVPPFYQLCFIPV
smiles,measurement,setting,value
COc1ccc(CN2C(=O)NC(=O)/C(=C/c3ccc([N+](=O)[O-])o3)C2=O)cc1,IC50,Large T antigen,71.7 µM (active)
same,IC50,[1],3.22 µM (active)
O=P(Nc1ccccc1Cl)(c1ccccc1)c1nc2c(s1)CCCC2 (stereo not drawn),EC50,[2],5.95 µM (active)
CCN(CC)C(=O)CSc1nc2c(sc(=S)n2-c2ccccc2)c(=O)n1-c1ccc(OC)cc1OC,IC50,[3],51.9 µM (active)
O=C(NCc1ccc2c(c1)OCO2)C1CCN(S(=O)(=O)c2cccs2)CC1,IC50,Aminopeptidase N,26.7 µM (active)
COc1ccc(N2CCN(C(=O)CN(Cc3ccc(Cl)cc3)S(C)(=O)=O)CC2)cc1,EC50,[2],11.3 µM (active)
COC(=O)c1c(-c2ccc(C(C)(C)C)cc2)csc1NC(=O)C1C2CCC(O2)C1C(=O)O (stereo not drawn),IC50,Aminopeptidase N,79.5 µM (active)
Cc1oc(-c2cccc(Cl)c2)nc1CN1CCC(C(=O)NCc2ccco2)CC1,EC50,[2],5.8 µM (active)
O=C(CNCCc1ccccc1)N1CCc2ccccc2C1,EC50,[4],1.2 µM (active)
same,IC50,[5],5.52 µM (active)
same,EC50,cells [6],> 29.9 µM (inactive)
same,IC50,cells [7],> 29.9 µM (inactive)
CCn1c(SCC(=O)c2ccc(CNC(C)=O)o2)nnc1-c1cccs1,IC50,Estrogen receptor,42.7 µM (not active)
CC(C)c1ccc2oc(-c3ccc(NC(=O)c4nc[nH]n4)cc3)nc2c1,CC50,[8],> 50 µM (active)
same,IC50,cells [9],42.2 µM (active)
same,EC50,[10],> 160 µM (inactive)
same,EC50,[11],0.04 µM (active)
CC(=O)OC1CC(C)(C)N(OC(=O)c2ccc(N)cc2)C(C)(C)C1,IC50,Estrogen receptor,26.3 µM (active)
COc1ccc(OC)c(Cc2nnc(CCC(=O)N3CCN(C4CCCC4)CC3)o2)c1,AC50,CAAX prenyl protease 2,7.48 µM (active)
COc1ccc2cc3cc(C(=O)N4CCCCC4C)oc3nc2c1 (stereo not drawn),IC50,Fatty acid synthase [12],2.52 µM (active)
same,CC50,[8],42.4 µM (active)
same,IC50,cells [9],35.1 µM (active)
same,IC50,Fatty acid synthase [13],2.81 µM (active)
CNC(=S)Nc1sc2c(c1C(=O)OC)CCC2,IC50,[1],1.48 µM (active)
CC12CC3OS(=O)OC3CC3C4C(C(OCc5ccccc5)C31)C42 (stereo not drawn),AC50,Cytochrome P450 2C19,0.251 µM (inconclusive)
CN1C(=O)/C(=C/c2cccc(Cl)c2)Sc2ccc(C(=O)N3CCOCC3)cc21,AC50,CAAX prenyl protease 2,5.96 µM (active)
O=C(O)CCc1ccc(-c2cccs2)n1CCc1ccccc1,EC50,[4],0.62 µM (active)
same,IC50,[5],5.93 µM (active)
same,EC50,cells [6],> 29.9 µM (inactive)
same,IC50,cells [7],> 29.9 µM (inactive)
O=C(CCC1COc2ccccc2O1)NCC1COc2ccccc2O1 (stereo not drawn),EC50,[2],1.77 µM (active)
O=C(CN1CCC(NC(=O)c2ccccc2)CC1)NCc1ccccc1F,IC50,Aminopeptidase N,39.3 µM (active)
O=C(NC1CC1)c1cc2cc3ccccc3nc2s1,AC50,[14],45.7 µM (active)
CCOC(=O)c1c(NC(=O)CSc2nnc(CNC(=O)c3ccco3)n2C)sc2c1CCC2,IC50,Estrogen receptor,> 50 µM (not active)
COCCN(C(=O)C(C)C)c1nnc(-c2cccc(C)c2)s1,CC50,[8],> 50 µM (active)
same,IC50,cells [9],37.4 µM (active)
Nc1cccc(C2=Nc3cccc4cccc(c34)N2)c1,IC50,[1],3 µM (active)
O=C(O)c1cccc(Nc2nc(-c3cccnc3)nc3ccccc23)c1,IC50,Aminopeptidase N,79.2 µM (active)
O=[N+]([O-])c1ccc(N2CCCCC2)nc1,AC50,[14],3.98 µM (active)
O=[N+]([O-])c1ccc(NN=Cc2ccccc2O)nc1,IC50,Beta-galactosidase,46 µM (inactive)
Cc1nnn(-c2nonc2N)c1C(=O)NNC(=O)c1ccc(Cl)c(Cl)c1,EC50,[4],5.05 µM (active)
same,IC50,[5],> 29.9 µM (inactive)
same,EC50,cells [6],> 29.9 µM (inactive)
same,IC50,cells [7],> 29.9 µM (inactive)
O=C(N[C@H](C(=O)N1CCC[C@H]1C(=O)NCCc1ccccc1Cl)c1ccccc1)c1ccccc1,EC50,[4],3.78 µM (active)
same,IC50,[5],5.99 µM (active)
same,EC50,cells [6],> 29.9 µM (inactive)
same,IC50,cells [7],> 29.9 µM (inactive)
